The record followed here is article PMC7175281, “Polyphenolic Compounds from Lespedeza Bicolor Root Bark Inhibit Progression of Human Prostate Cancer Cells via Induction of Apoptosis and Cell Cycle Arrest” (Biomolecules, 2020).

SMILES strings stand for the structures. Entries after “also recorded” stand apart in the source; their conditions may differ. Bounds are passed on as bounds.

Experiment [1] deals with 22Rv1 human prostate cancer cells. Description: MTT assay, 22Rv1 cells. The following applies: treated for 48 h. The experiment is classed as cell-based. As for the experimental part:
(§1) The human prostate cancer cell lines PC-3 [docetaxel-resistant, androgen-independent, AR-FL(-), AR-V7(-)], 22Rv1 [docetaxel-sensitive, androgen-independent, AR-FL(+), AR-V7(+)], and the human non-cancer fibroblast cell line MRC-9 were used. PC-3 and 22Rv1 were purchased from ATCC (Manassas, VA, USA). MRC-9 cells were kindly donated by Prof. Dr. med. Sonja Loges (University Medical Center Hamburg-Eppendorf, Hamburg, Germany). Cells were cultured according to the manufacturers’ protocol in 10% FBS/RPMI (PC-3 and 22Rv1) or 10% FBS/DMEM (MRC-9) medium.
(§2) In vitro drug sensitivity MTT assay was performed as previously described. In total, 6000 cells/well were seeded in 96-well plates, incubated overnight, and treated with the investigated drugs for 48 h.
In general terms: Formazan colour is commonly taken as a measure of viable cells.

The test system of experiment [2] is PC-3 human prostate cancer cells. Briefly: MTT assay, PC-3 cells. The following applies: for IC50: PC-3 cells, MTT, treated for 48 h; for Selectivity index (MRC-9 vs. PC-3): [IC50 in MRC-9 cells] / [IC50 in PC-3 cells]. The format is cell-based. As for the experimental part: as §1, §2
Experiment [3] deals with MRC-9 human non-cancer fibroblast cells. Description: MTT assay, MRC-9 non-cancer fibroblasts. The experiment is classed as cell-based. Particulars: treated for 48 h. As for the experimental part:
as §1, §2

Experiment [4] relates to CDK1–CDK9 mRNA in PC-3 cells. Description: qPCR of CDK1-CDK9 mRNA expression. The format is cell-based, human. The following applies: 24 h, normalized to GAPDH (Figure 5). As for the experimental part:
The CDKs gene expression was measured using qPCR technique. PC-3 cells were seeded in Petri dishes (1 × 10^6 cells per ø 6 cm dish in 5 mL) in standard culture media, incubated overnight and treated with the investigated drugs in the fresh culture media for 24 h. Cells were harvested using the cell scraper, washed with PBS and homogenized using QIAshredder (QIAGEN, Hilden, Germany). The total RNA was isolated using PureLink® RNA Mini Kit (Invitrogen, Carlsbad, CA, USA) and the on-column DNA digestion using PureLink™ DNase (Invitrogen). Correspondent RNA (2 µg in 30 µL) and was transcribed into cDNA using Maxima First Strand cDNA Synthesis Kit for RT-qPCR (Thermo Scientific, Vilnius, Lithuania). The following qPCR was performed using 2X KAPA SYBR FAST qPCR Master Mix Optimized for Roche LightCycler 480 (KAPA biosystems, Worburn, MA, USA) according to the manufacturer’s protocol. In total, 20 ng of the template cDNA and 2 pmol of primers were used for each reaction. The PCR conditions were 30 s at 95 °C, followed by 40 cycles of 15 s at 95 °C, 5 s at melting temperature (Tm), and 26 s at 72 °C (fluorescence measurement). Melting curve analysis was performed under the following conditions directly after the PCR run: 10 s at 95 °C, 60 s at 65 °C and 1 s at 97 °C. Relative gene expression was calculated using the 2^-∆∆CT method. The expression of CDKs was normalized to GAPDH gene expression. The analysis was performed using primers, purchased from Eurofins MWG-Biotech AG (Ebersberg, Germany).
Due to the significant alterations of the cell cycle, we further investigated the effects of the isolated compounds on the cyclin-dependent kinases (CDKs). These proteins are known to control proliferation as well as some apoptotic processes. We have examined the expression of mRNAs corresponding to the nine most studied CDKs known to be involved in the cell cycle progression of cancer cells, namely, CDK1–CDK9. […] Remarkably, these effects correlated well with the cytotoxicity of the isolated compounds.
Figure 5 Expression of mRNA correspondent to CDK1-9 in PC-3 cells treated with the isolated compounds 1–8 for 24 h. The target gene expression was normalized to GAPDH gene expression. * p ≤ 0.05 (Student’s t-test).
A general note: Quantitative PCR measures a nucleic acid by following its amplification.

Experiment [5] concerns PC-3 cells. Description: DNA fragmentation / apoptosis induction by flow cytometry (PI staining, sub-G1). The format is cell-based, human. Particulars: PC-3 cells, 0.5, 1, 5 and 10 µM, 24 h (Figure 3). As for the experimental part:
(§3) The effect of the compounds on apoptosis induction and cell cycle progression was analyzed by flow cytometry technique using PI staining as reported before. Cells (0.2 × 10^6 cells/well) were seeded in six-well plates, incubated overnight, and treated with the investigated drugs for 48 h. The cells were further harvested, fixed with 70% EtOH/H2O, stained with propidium iodide (PI), and analyzed using a FACS Calibur machine (BD Bioscience, San Jose, CA, USA). The results were quantified using BD Bioscience Cell Quest Pro software (v.5.2.1., BD Bioscience).
To investigate the mechanism of action contributing to the cytotoxicity in PC-3 cells, we investigated the effects on DNA fragmentation, a well-established marker of cellular apoptosis. Therefore, we evaluated the effects of the isolated compounds at four different concentrations of 0.5 µM, 1 µM, 5 µM, and 10 µM by flow cytometry (Figure 3). […] Therefore, prenylated dimeric flavonoid 8 may either reveal a non-apoptotic character of cell death or a predominantly antiproliferative rather than cytotoxic effect.
Figure 3 Effect of natural compounds on DNA fragmentation of PC-3 cells. Cells were treated with the investigated compounds for 24 h. The effects were analyzed by flow cytometry. Cells detected as sub-G1 population were considered to be apoptotic. Cisplatin (Cis) was used as a positive control. * p ≤ 0.05 (Student’s t-test).
A general note: A flow cytometer gives signals particle by particle.

In experiment [6] the test system is PC-3 cells. Briefly: Cell cycle progression by flow cytometry (PI staining). The experiment is classed as cell-based, human. Particulars: 24 h (Figure 4). As for the experimental part: as §3
Next, we examined the effects of the isolated compounds on the cell cycle progression of PC-3 cells. For compounds 1–3, a significant accumulation of the cells in S-phase as well as slight accumulation in G2/M-phase was observed (Figure 4).
Figure 4 Treatment effects on the progression of the cell cycle of PC-3 cells. Cells were treated with the investigated compounds for 24 h. The effects were analyzed by flow cytometry. Cisplatin was used as a positive control. * p ≤ 0.05 (Student’s t-test).

Where [7] appears, read: Homo sapiens, MRC9, MRC-9 cells.

With `N.N.[Cl][Pt][Cl]` [Cisplatin, reference compound], the IC50 (as a rule, the point on the concentration scale where inhibition reaches its midpoint) in experiment [1] turned out to be 4.53 µM; in experiment [2] it was 21 µM; in experiment [3] (MRC-9 cells), 15.1 µM. In experiment [2], the “Selectivity index (MRC-9 vs. PC-3)” value was found to be 0.72.

With `CC(C)=CCC/C(C)=C/Cc1c(O)c(O)cc2c3c(oc12)-c1ccc(O)cc1OC3` [Compound 1], in experiment [4], the “Effect on expression of mRNA corresponding to CDK1-9” value (“Effect on expression” below) is listed as “inhibitory effects”. Besides, the IC50 in experiment [1] (Homo sapiens) was 20.1 µM; in experiment [2] (Homo sapiens), 6.73 µM; in experiment [3] (setting [7]) it was 48.5 µM. Moreover, the “Selectivity index (MRC-9 vs. PC-3)” value in experiment [2] is on record as 7.21.

As for `CC(C)=CCC/C(C)=C/Cc1c(O)c(O)cc2c1O[C@H]1c3ccc(O)cc3OC[C@@H]21` [Compound 2], the “Effect on expression” value in experiment [4] was “inhibitory effects; also recorded: fairly active”. Besides, the figures for the concentration for half-maximal inhibition (IC50) in experiment [1] (Homo sapiens), in experiment [2] (Homo sapiens) and in experiment [3] (setting [7]) were 13.8 µM, 5.24 µM and 37.6 µM, respectively. In experiment [2], the “Selectivity index (MRC-9 vs. PC-3)” value was 7.17.

Turning to `CC(C)=CCC/C(C)=C/Cc1c(O)c(O)cc2c1O[C@H]1c3cc(CC=C(C)C)c(O)cc3OC[C@@H]21` [Compound 3], the “Effect on expression” value in experiment [4] is reported as “inhibitory effects; also recorded: strongest inhibitory effect”. Moreover, the values for the IC50 in experiment [1] (Homo sapiens), in experiment [2] (Homo sapiens) and in experiment [3] (setting [7]) were 6.38 µM, 2.1 µM and 16.8 µM, respectively. In experiment [5], the “Apoptosis induction (DNA fragmentation, sub-G1 population)” value is on record as “most pronounced apoptosis-inducing effect”. Besides, the “Selectivity index (MRC-9 vs. PC-3)” value in experiment [2] is on record as 7.99.

As for `CC(C)=CCC[C@]1(C)C=Cc2c(c(O)cc3c2O[C@H]2c4ccc(O)cc4OC[C@@H]32)O1` [Compound 4], the IC50 in experiment [1] (Homo sapiens) worked out at 29.5 µM; in experiment [2] (Homo sapiens), 16.4 µM; in experiment [3] (setting [7]), 27.2 µM. The “Selectivity index (MRC-9 vs. PC-3)” value in experiment [2] is listed as 1.66.

In the case of `CC(C)=CCC[C@@]1(C)C=Cc2c(c(O)cc3c2O[C@H]2c4ccc(O)cc4OC[C@@H]32)O1` [Compound 5], the IC50 stood at 35.8 µM in experiment [1] (Homo sapiens), 15.2 µM in experiment [2] (Homo sapiens) and 24.6 µM in experiment [3] (setting [7]). In addition, in experiment [2], the “Selectivity index (MRC-9 vs. PC-3)” value came out at 1.62.

As for `CC(C)=CCC/C(C)=C/Cc1c(O)c(O)cc(C(=O)C(=O)c2ccc(O)cc2O)c1O` [Compound 6], the IC50 in experiment [1] (Homo sapiens) was 46.9 µM; in experiment [2] (Homo sapiens), 19.3 µM; in experiment [3] (setting [7]), over 50 µM. Besides, in experiment [2], the “Selectivity index (MRC-9 vs. PC-3)” value was over 2.6.

Regarding `COc1cc2c(c(C/C=C(\C)CCC=C(C)C)c1O)O[C@H]1c3ccc(O)cc3OC[C@@H]21` [Compound 7, (6aR,11aR)-8-O-methyl-6a,11a-dihydrolespedezol A2], in experiment [4], the “Effect on expression” value is listed as “did not exhibit this activity”. Further, the IC50 is 30.5 µM in experiment [1] (Homo sapiens), 14.9 µM in experiment [2] (Homo sapiens) and 24.4 µM in experiment [3] (setting [7]). Further, the “Effect on cell cycle progression” value in experiment [6] was “G1-phase arrest instead of S-phase arrest”. Further, the “Selectivity index (MRC-9 vs. PC-3)” value in experiment [2] came to 1.64.

For the molecule `CC(C)=CCC/C(C)=C/Cc1c(O)c(C(=O)c2c(-c3ccc(O)cc3O)oc3c(C/C=C(\C)CCC=C(C)C)c(O)c(O)cc23)cc2c1O[C@H]1c3ccc(O)cc3OC[C@@H]21` [Compound 8, Lespebicolin A], in experiment [4], the “Effect on expression” value is given as “did not exhibit any pronounced effect on CDKs mRNA expression”. For the same molecule, the IC50 in experiment [1] (Homo sapiens) is 17.5 µM; in experiment [2] (Homo sapiens), 9.24 µM; in experiment [3] (setting [7]), 23.9 µM. Further, the “Apoptosis induction (DNA fragmentation, sub-G1 population)” value in experiment [5] was “apart from structurally different lespebicolin A (8)”. The “Effect on cell cycle progression” value in experiment [6] was “could not induce an S-phase cell cycle arrest”. Also, the “Selectivity index (MRC-9 vs. PC-3)” value in experiment [2] is reported as 2.59.
